Source: patent publication US12606556B2, “TYK-2 inhibitor” (BEIGENE, LTD., priority 2020, dated 2026)
Like-named read-outs stand apart in the source and are kept apart here.

Columns and labels:
[1] = target: T1, JAK1-JH2 protein (aa 561-860, in-house) (Homo sapiens, UniProt P23458); experiment: JAK1-JH2 biochemical assay (HTRF, blocking of JAK1-JH2 protein with its probe); assay type: binding; settings: 1.17 nM recombinant JAK1-JH2, Probe 2
T1 construct: JAK1-JH2 protein (aa 561-860, in-house); made in house
Method: Assay B: JAK1-JH2 Biochemical Assay
Compounds disclosed herein were tested for blocking of JAK1-JH2 protein (aa 561-860, in-house) with its probe in an assay based on Homogeneous Time Resolved Fluorescence. Compound dilution is done according to the following protocol: (1) Prepare 500× compounds solution in DMSO from 500 uM by 5-fold dilution, total 10 doses were included; (2) Prepare 10× compounds solution in an assay buffer containing 20 mM HEPES, pH 7.5, 10 mM MgCl2, 0.005% BSA, 2 mM DTT, 0.015% Brij-35 by transferring 1 μl serial 500× stock solution into 49 μl assay buffer. 4 μL of 1.17 nM recombinant JAK1-JH2 protein was pre-incubated with 1 μl of 10×serial dilution of compounds at room temperature for 0.5 hour. […] The HTRF signals (ex337 nm, em620 nm/665 nm) were read on BMG PHERAstar FS instrument. The inhibition percentage of JAK1 interaction with its probe in presence of increasing concentrations of compounds was calculated based on the ratio of fluorescence at 615 nm to that at 665 nm. The IC50 for each compound was derived from fitting the data to the four-parameter logistic equation by Dotmatics.

[2] = tested on: JAK1/p-STAT3(Tyr705) activated by IL-6 in TF-1 cell line; experiment: IL-6-JAK1/p-STAT3(Tyr705) inhibition cellular assay; assay type: cell-based; settings: Homo sapiens, read-out: Cellular assay pSTAT3/IL-6 IC50
Source text: Assay D: IL-6-JAK1/p-STAT3(Tyr705) Inhibition IC50 Cellular Assay
To evaluate the inhibition effect of compounds disclosed herein on JAK1/p-STAT3(Tyr705) activated by IL-6 in TF-1 cell line, TF-1 cells were collected and washed 3 times by DPBS and resuspended in RPMI-1640 (phenol red free, Gibco, Cat #11835-030) with 0.1% FBS (Gibco, Cat #10099, Lot #1891605), without GM-CSF(R&D systems,Cat #215-GM-050), starved overnight. Cells were collected and resuspended in 1640 medium (phenol red free, Gibco, Cat #11835-030) with 0.1% BSA, and 12.5 μl/10×10^4/well cell suspension were seeded to the 96-well plate (Corning, Cat #3799). Then cells were treated with compounds diluted in 0.2% DMSO 1640 medium, at 37° C., 1 h. Dilution is done according to the following protocol: (1) make 500× compounds solution in DMSO from 5 mM by 4-fold dilution, total 8 doses were included; (3) make 2× compounds solution in assay medium by transferring 0.5 μl serial 500× stock solution into 125 μl assay medium; (4) 15 μl of 2× solution is added to cells and incubate at 37° C. for 1 h, the final compound conc. is 10000,2500,625,156.25,39,9.8,2.4 and 0.61 nM, respectively. After 1 h, cells were treated with 2.5 μl medium containing IL-6 at 37° C. (R&D systems, Cat #206-IL-010, final conc.50 ng/ml), 30 min. Following cells were lysed with 10 μl lysis buffer at RT, shaking on shaker for 1 h. 16 μL of cell lysate were transferred to a PE 384-well HTRF detection plate, and 4 μL of pre-mixed HTRF antibodies were added to each well. Covered the plate with a plate sealer, span 1000 rpm for 1 min, mix, Incubated overnight at room temperature. Read on BMG PheraStar with HTRF protocol (337 nm-665 nm-620 nm). IC 50 values were calculated by fitting dependent data to the four-parameter logistic model using dotmatics software. The assay was performed by using HTRF Phospho-STAT3(Tyr705) Cellular Assay Kit (Cisbio, Cat #62AT3PEG).

[3] = target: T2, TYK2-JH2 (aa 575-869, in-house) protein (Homo sapiens, UniProt P29597); experiment: TYK2-JH2 biochemical assay (HTRF, blocking of TYK2-JH2 protein with its probe); assay type: binding; settings: for IC50: HTRF, 0.2 nM recombinant TYK2-JH2, Probe 1; for Biochemical assay Selectivity fold (TYK2/JAK1): TYK2-JH2 vs JAK1-JH2 biochemical IC50
T2 construct: TYK2-JH2 (aa 575-869, in-house) protein; made in house
Method: Assay A: TYK2-JH2 Biochemical Assay
Compounds disclosed herein were tested for blocking of TYK2-JH2 (aa 575-869, in-house) protein with its probe in an assay based on Homogeneous Time Resolved Fluorescence.
Compound dilution is done according to the following protocol: (1) Prepare 500× compounds solution in DMSO from 500 uM by 5-fold dilution, total 10 doses were included; (2) Prepare 10× compounds solution in an assay buffer containing 20 mM HEPES, pH 7.5, 10 mM MgCl2, 0.005% BSA, 2 mM DTT, 0.015% Brij-35 by transferring 1 μl serial 500× stock solution into 49 μl assay buffer. 4 μl of 0.2 nM recombinant TYK2-JH2 protein was pre-incubated with 1 μl of 10×serial dilution of compounds at room temperature for 0.5 hour. Then 5 μl of 10 nM in-house Probe 1 (6-((3,5-dimethylphenyl)amino)-8-((4,26-dioxo-30-((3aS,4S,6aR)-2-oxohexahydro-1H-thieno[3,4-d]imidazol-4-yl)-7,10,13,16,19,22-hexaoxa-3,25-diazatriacontyl)amino)imidazo[1,2-b]pyridazine-3-carboxamide, KD=10 nM), 5 μl Mab Anti-6His Tb cryptate Gold (Cat: 61HI2TLB, Cisbio Bioassays) and Streptavidin-XL665(Cat: 610SAXLB, Cisobio Bioassays) mixture were added to plate and further incubated at room temperature for 1 hour. The HTRF signals (ex337 nm, em620 nm/665 nm) were read on BMG PHERAstar FS instrument. The inhibition percentage of TYK2 interaction with its probe in presence of increasing concentrations of compounds was calculated based on the ratio of fluorescence at […]. The IC50 for each compound was derived from fitting the data to the four-parameter logistic equation by Dotmatics.

[4] = tested on: JAK2, TYK2/p-STAT4 (Tyr693) activated by IL-12 in NK-92 cell line; experiment: IL-12-JAK2, TYK2/p-STAT4 (Tyr693) inhibition cellular assay; assay type: cell-based; settings: for IC50: NK92, 0.5 h, read-out: Cellular assay pSTAT4/IL-12 IC50; for Cellular assay Selectivity fold (TYK2/JAK1): pSTAT4/IL-12 vs pSTAT3/IL-6 cellular IC50
Source text: Assay C: IL-12-JAK2, TYK2/p-STAT4 (Tyr693) Inhibition IC50 Cellular Assay
To evaluate the inhibition effect of compounds disclosed herein on JAK2, TYK2/p-STAT4 (Tyr693) activated by IL-12 in NK-92 cell line, NK-92 cells were collected and washed 3 times by DPBS and resuspended in MEM-α(GIBCO,Cat #12561056) with 10% FBS (Gibco, Cat #10099, Lot #1891605), without IL-2 (R&D systems,Cat #202-IL), starved overnight. Cells were collected and resuspended in 1640 medium (phenol red free, Gibco, Cat #11835-030) with 0.1% BSA, and 12.5 μl/5×10^4/well cell suspension were seeded to the 96-well plate (Corning, Cat #3799). Then cells were treated with compounds diluted in 0.2% DMSO 1640 medium, at 37° C., 1 h. Dilution is done according to the following protocol: (1) make 500× compounds solution in DMSO from 5 mM by 4-fold dilution, total 8 doses were included; (3) make 2× compounds solution in assay medium by transferring 0.5 μl serial 500× stock solution into 125 μl assay medium; (4) 15 μl of 2× serial solution is added to cells and incubate at 37° C. for 1 h, the final compound conc. is 10000,2500,625,156.25,39,9.8,2.4 and 0.61 nM, respectively. After 1 h, cells were treated with 2.5 μl medium containing IL-12 at 37° C. (R&D systems, Cat #219-IL-005, final conc.40 ng/ml), 30 min. Following cells were lysed with 7.5 μl lysis buffer at RT, shaking on shaker for 1 h. 10 μL of cell lysate were transferred to a PE 384-well Proxiplate detection plate, and 5 μL of pre-mixed Alphascreen beads were added to each well. Covered the plate with a plate sealer, span 1000 rpm for 1 min, mix, Incubated overnight at room temperature. Read on BMG PheraStar with Alphascreen protocol. IC 50 values were calculated by fitting dependent data to the four-parameter logistic model using dotmatics software. The assay was performed by using AlphaLISA SureFire Ultra p-STAT4 (Tyr693) Assay Kit—High Volume (PE, Cat #ALSU-PST4-A-HV).

[5] = 0.5 h, TF-1 cells, IL-6 50 ng/ml, 30 min
[6] = NK-92 cells, IL-12 40 ng/ml, 30 min

T2 sequence (P29597 575-869): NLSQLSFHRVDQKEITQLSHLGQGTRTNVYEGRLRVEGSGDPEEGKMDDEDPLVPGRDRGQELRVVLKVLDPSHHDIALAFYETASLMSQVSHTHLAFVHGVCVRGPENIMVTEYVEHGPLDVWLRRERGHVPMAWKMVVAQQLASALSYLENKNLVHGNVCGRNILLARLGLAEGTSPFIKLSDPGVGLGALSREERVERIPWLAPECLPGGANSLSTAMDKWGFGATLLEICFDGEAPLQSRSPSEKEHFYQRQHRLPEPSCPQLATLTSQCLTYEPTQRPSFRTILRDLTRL
T1 sequence (P23458 561-860): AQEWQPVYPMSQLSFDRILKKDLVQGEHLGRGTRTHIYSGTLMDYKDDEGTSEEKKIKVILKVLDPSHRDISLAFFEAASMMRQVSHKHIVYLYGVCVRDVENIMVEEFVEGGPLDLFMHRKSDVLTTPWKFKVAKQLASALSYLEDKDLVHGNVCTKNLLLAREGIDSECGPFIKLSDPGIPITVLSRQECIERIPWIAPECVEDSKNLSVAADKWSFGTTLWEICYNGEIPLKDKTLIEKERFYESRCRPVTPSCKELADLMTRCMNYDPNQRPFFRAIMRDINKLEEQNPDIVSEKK

IC50 [1]	IC50 [2, 5]	IC50 [3]	Biochemical assay Selectivity fold (TYK2/JAK1) [3]	IC50 [4, 6]	SMILES	Cellular assay Selectivity fold (TYK2/JAK1) [4]	IC50 ([2]; TF-1, 0.5 h)	IC50 [4]
3.8 nM	> 10000 nM	0.5 nM	8 fold	219 nM	CNC(=O)c1nnc(NC(=O)C2CC2)cc1Nc1nc2ccc(N3C(=O)CC3c3ccccc3)cn2n1 (stereo not drawn) [Example K1, 6-(cyclopropanecarboxamido)-N-methyl-4-((6-(2-oxo-4-phenylazetidin-1-yl)-[1,2,4]triazolo[1,5-a]pyridin-2-yl)amino)pyridazine-3-carboxamide]	>46 fold	–	–
1.4 nM	> 10000 nM	0.87 nM	2 fold	687 nM	CNC(=O)c1nnc(NC(=O)C2CC2)cc1Nc1nc2c(OC)cc(N3CCC3)cn2n1 [Example N1, 4-((6-(azetidin-1-yl)-8-methoxy-[1,2,4]triazolo[1,5-a]pyridin-2-yl)amino)-6-(cyclopropanecarboxamido)-N-methylpyridazine-3-carboxamide]	>14 fold	–	–
1.5 nM	> 10000 nM	0.072 nM	21 fold	127 nM	CNC(=O)c1nnc(NC(=O)C2CC2)cc1Nc1nc2ccc(C3CN(C(=O)c4cccnc4)C3)cn2n1 [Example L3, 6-(cyclopropanecarboxamido)-N-methyl-4-((6-(1-nicotinoylazetidin-3-yl)-[1,2,4]triazolo[1,5-a]pyridin-2-yl)amino)pyridazine-3-carboxamide]	>79 fold	–	–
1.2 nM	9800 nM	0.047 nM	26 fold	9.01 nM	CNC(=O)c1nnc(NC(=O)C2CC2)cc1Nc1nc2ccc(N3CC(OC)C3)cn2n1 [Example E2, 6-(cyclopropanecarboxamido)-4-((6-(3-methoxyazetidin-1-yl)-[1,2,4]triazolo[1,5-a]pyridin-2-yl)amino)-N-methylpyridazine-3-carboxamide]	1087 fold	–	–
1.5 nM	> 10000 nM	0.04 nM	38 fold	86 nM	CNC(=O)c1nnc(NC(=O)C2CC2)cc1Nc1nc2ccc(C3CN(C(=O)N4CCOCC4)C3)cn2n1 [Example L6, 6-(cyclopropanecarboxamido)-N-methyl-4-((6-(1-(morpholine-4-carbonyl)azetidin-3-yl)-[1,2,4]triazolo[1,5-a]pyridin-2-yl)amino)pyridazine-3-carboxamide]	>117 fold	–	–
1.47 nM	4100 nM	0.089 nM	17 fold	21 nM	CNC(=O)c1nnc(NC(=O)C2CC2)cc1Nc1nc2c(C)cc(N3CCC3)cn2n1 [Example N3]	192 fold	–	–
1.8 nM	> 10000 nM	0.086 nM	21 fold	15.6 nM	CNC(=O)c1nnc(NC(=O)C2CC2)cc1Nc1nc2ccc(N3CC(F)(CO)C3)cn2n1 [Example J1, 6-(cyclopropanecarboxamido)-4-((6-(3-fluoro-3-(hydroxymethyl)azetidin-1-yl)-[1,2,4]triazolo[1,5-a]pyridin-2-yl)amino)-N-methylpyridazine-3-carboxamide]	>641 fold	–	–

SMILES	IC50 [1]	IC50 [2, 5]	IC50 [3]	Biochemical assay Selectivity fold (TYK2/JAK1) [3]	IC50 [4, 6]	Cellular assay Selectivity fold (TYK2/JAK1) [4]	IC50 ([2]; TF-1, 0.5 h)	IC50 [4]
CNC(=O)c1nnc(NC(=O)C2CC2)cc1Nc1nc2ccc(C(=O)N3CCC3)cn2n1 [Example O1, 4-((6-(azetidine-1-carbonyl)-[1,2,4]triazolo[1,5-a]pyridin-2-yl)amino)-6-(cyclopropanecarboxamido)-N-methylpyridazine-3-carboxamide]	1.06 nM	–	0.17 nM	6 fold	–	28 fold	4880 nM	169 nM
